Reference: PMC5218480 (PLoS ONE, 2017)

System: MV-4-11 cells
Test: Gene expression microarray analysis (Affymetrix PrimeView) and GSEA
Type: cell-based, human
Set-up: RFU PODN (11730768_x_at) / Fold change /veh PODN (11730768_x_at) / RFU LINC00158 (11744669_a_at) / Fold change /veh LINC00158 (11744669_a_at) / RFU DUSP10 (11751237_a_at) / Fold change /veh DUSP10 (11751237_a_at) / RFU ID3 (11757404_x_at) / Fold change /veh ID3 (11757404_x_at) / RFU PLEKHG5 (11737974_s_at) / Fold change /veh PLEKHG5 (11737974_s_at) / RFU LRRC4B (11730491_at) / Fold change /veh LRRC4B (11730491_at) / RFU GIMAP4 (11747438_a_at) / Fold change /veh GIMAP4 (11747438_a_at) / RFU KRT8 (11758183_x_at) / Fold change /veh KRT8 (11758183_x_at) / RFU CNN1 (11734310_a_at) / Fold change /veh CNN1 (11734310_a_at) / RFU VPS37D (11726825_at) / Fold change /veh VPS37D (11726825_at) / RFU C10orf10 (11716522_x_at) / Fold change /veh C10orf10 (11716522_x_at) / RFU KIR2DL2 /// KIR2DL4 /// KIR2DL5A /// KIR2DL5B /// KIR2DS1 /// KIR2DS2 /// KIR2DS3 /// KIR2DS4 /// KIR3DL3 /// KIR3DL3 /// KIR3DS1 (11738374_at) / Fold change /veh KIR2DL2 /// KIR2DL4 /// KIR2DL5A /// KIR2DL5B /// KIR2DS1 /// KIR2DS2 /// KIR2DS3 /// KIR2DS4 /// KIR3DL3 /// KIR3DL3 /// KIR3DS1 (11738374_at) / RFU C1QL1 (11718748_at) / Fold change /veh C1QL1 (11718748_at) / RFU TMPRSS4 (11747572_a_at) / Fold change /veh TMPRSS4 (11747572_a_at) / RFU HAMP (11756126_x_at) / Fold change /veh HAMP (11756126_x_at) / RFU RNFT2 (11725882_a_at) / Fold change /veh RNFT2 (11725882_a_at) / RFU NR4A2 (11747474_a_at) / Fold change /veh NR4A2 (11747474_a_at) / RFU ABCC12 (11746883_a_at) / Fold change /veh ABCC12 (11746883_a_at) / RFU TMEM136 (11760407_x_at) / Fold change /veh TMEM136 (11760407_x_at) / RFU CLDN22 /// WWC2 (11732394_at) / Fold change /veh CLDN22 /// WWC2 (11732394_at) / RFU HLA-DPB1 (11760878_x_at) / Fold change /veh HLA-DPB1 (11760878_x_at) / RFU SPINT1 (11716480_a_at) / Fold change /veh SPINT1 (11716480_a_at) / RFU GAP43 (11754022_s_at) / Fold change /veh GAP43 (11754022_s_at) / RFU A4GNT (11735810_at) / Fold change /veh A4GNT (11735810_at) / RFU PRB3 (11715151_x_at) / Fold change /veh PRB3 (11715151_x_at) / RFU TUBB4B (11761932_at) / Fold change /veh TUBB4B (11761932_at) / RFU CAPN14 (11732068_a_at) / Fold change /veh CAPN14 (11732068_a_at) / RFU TMCC2 (11721928_a_at) / Fold change /veh TMCC2 (11721928_a_at) / RFU IRGQ (11745062_a_at) / Fold change /veh IRGQ (11745062_a_at) / RFU FAM174B (11720279_a_at) / Fold change /veh FAM174B (11720279_a_at) / RFU TMPRSS4 (11748680_a_at) / Fold change /veh TMPRSS4 (11748680_a_at) / RFU FAM212B (11763350_a_at) / Fold change /veh FAM212B (11763350_a_at) / RFU PLEKHG5 (11743358_a_at) / Fold change /veh PLEKHG5 (11743358_a_at) / RFU ZSCAN30 (11745921_a_at) / Fold change /veh ZSCAN30 (11745921_a_at) / RFU CMKLR1 (11741424_a_at) / Fold change /veh CMKLR1 (11741424_a_at) / RFU LOC101060620 /// MAPK8IP1 (11723275_at) / Fold change /veh LOC101060620 /// MAPK8IP1 (11723275_at) / RFU SPTSSB (11747773_x_at) / Fold change /veh SPTSSB (11747773_x_at) / RFU PRSS12 (11739890_at) / Fold change /veh PRSS12 (11739890_at) / RFU BIN1 (11741810_x_at) / Fold change /veh BIN1 (11741810_x_at) / RFU WNT11 (11732464_a_at) / Fold change /veh WNT11 (11732464_a_at) / RFU C10orf10 (11716521_a_at) / Fold change /veh C10orf10 (11716521_a_at) / RFU C5orf56 (11738089_at) / Fold change /veh C5orf56 (11738089_at) / RFU CYB561 (11721691_x_at) / Fold change /veh CYB561 (11721691_x_at) / RFU ANKRD19P (11752326_a_at) / Fold change /veh ANKRD19P (11752326_a_at) / RFU OR2T12 /// OR2T33 /// OR2T8 (11738714_s_at) / Fold change /veh OR2T12 /// OR2T33 /// OR2T8 (11738714_s_at) / RFU VCAN (11748164_a_at) / Fold change /veh VCAN (11748164_a_at) / RFU JSRP1 (11732532_at) / Fold change /veh JSRP1 (11732532_at) / RFU KRTAP10-11 (11738290_x_at) / Fold change /veh KRTAP10-11 (11738290_x_at) / RFU MYO3A (11730013_a_at) / Fold change /veh MYO3A (11730013_a_at) / RFU EBF3 (11725865_a_at) / Fold change /veh EBF3 (11725865_a_at) / RFU CAMK2N1 (11719241_x_at) / Fold change /veh CAMK2N1 (11719241_x_at) / RFU C5orf56 (11738088_a_at) / Fold change /veh C5orf56 (11738088_a_at) / RFU OLFML3 (11715873_a_at) / Fold change /veh OLFML3 (11715873_a_at) / RFU LOC100653217 /// NTM (11731650_a_at) / Fold change /veh LOC100653217 /// NTM (11731650_a_at) / RFU MAPK11 (11762145_a_at) / Fold change /veh MAPK11 (11762145_a_at) / RFU FIZ1 (11724087_x_at) / Fold change /veh FIZ1 (11724087_x_at) / RFU OASL (11726364_x_at) / Fold change /veh OASL (11726364_x_at) / RFU SOX15 (11748057_x_at) / Fold change /veh SOX15 (11748057_x_at) / RFU CD79A (11719716_a_at) / Fold change /veh CD79A (11719716_a_at) / RFU HIST1H1D (11736915_at) / Fold change /veh HIST1H1D (11736915_at) / RFU CASKIN2 (11723855_a_at) / Fold change /veh CASKIN2 (11723855_a_at) / RFU LOC730098 (11760151_x_at) / Fold change /veh LOC730098 (11760151_x_at) / RFU OR4N2 (11742367_at) / Fold change /veh OR4N2 (11742367_at) / RFU PRRT2 (11749266_a_at) / Fold change /veh PRRT2 (11749266_a_at) / RFU SNX32 (11753110_a_at) / Fold change /veh SNX32 (11753110_a_at) / RFU CDHR5 (11726645_a_at) / Fold change /veh CDHR5 (11726645_a_at) / RFU RCAN1 (11760418_a_at) / Fold change /veh RCAN1 (11760418_a_at) / RFU FAM167A (11723789_a_at) / Fold change /veh FAM167A (11723789_a_at) / RFU FAM26E (11764081_at) / Fold change /veh FAM26E (11764081_at) / RFU ISYNA1 (11749810_s_at) / Fold change /veh ISYNA1 (11749810_s_at) / RFU ACY1 (11761880_at) / Fold change /veh ACY1 (11761880_at) / RFU 11764098_at / Fold change /veh 11764098_at / RFU SAMD14 (11745864_x_at) / Fold change /veh SAMD14 (11745864_x_at) / RFU NPB (11741838_a_at) / Fold change /veh NPB (11741838_a_at) / RFU TMPRSS6 (11731388_a_at) / Fold change /veh TMPRSS6 (11731388_a_at) / RFU KRTAP10-2 (11738614_at) / Fold change /veh KRTAP10-2 (11738614_at) / RFU ARHGAP8 /// PRR5-ARHGAP8 (11727945_x_at) / Fold change /veh ARHGAP8 /// PRR5-ARHGAP8 (11727945_x_at) / RFU KRTAP5-7 /// NADSYN1 (11734609_at) / Fold change /veh KRTAP5-7 /// NADSYN1 (11734609_at) / RFU RASL12 (11751679_a_at) / Fold change /veh RASL12 (11751679_a_at) / RFU CDKN2B (11736163_a_at) / Fold change /veh CDKN2B (11736163_a_at) / RFU PRF1 (11729649_at) / Fold change /veh PRF1 (11729649_at) / RFU, ZNF638 /// ZNF638-IT1 / Fold change vs veh, ZNF638 /// ZNF638-IT1 / RFU, PANK3 / Fold change vs veh, PANK3 / RFU, SH3YL1 / Fold change vs veh, SH3YL1 / RFU, ZEB2 / Fold change vs veh, ZEB2 / RFU, NRIP1 / Fold change vs veh, NRIP1 / RFU, PTTG1IP / Fold change vs veh, PTTG1IP / RFU, CAPN2 / Fold change vs veh, CAPN2 / RFU, MED14 / Fold change vs veh, MED14 / RFU, SNORA58 / Fold change vs veh, SNORA58 / RFU, C1orf63 / Fold change vs veh, C1orf63 / RFU, LRRFIP1 / Fold change vs veh, LRRFIP1 / RFU, NDUFAF7 / Fold change vs veh, NDUFAF7 / RFU, SLC12A2 / Fold change vs veh, SLC12A2 / RFU, IBTK / Fold change vs veh, IBTK / RFU, ESF1 / Fold change vs veh, ESF1 / Fold change vs veh, TMEM50B / RFU, TAOK1 / Fold change vs veh, TAOK1 / RFU, ACBD3 / Fold change vs veh, ACBD3 / RFU, TMA16 / Fold change vs veh, TMA16 / RFU, RWDD3 / Fold change vs veh, RWDD3 / RFU, BCAT1 / Fold change vs veh, BCAT1 / RFU, EDEM3 / Fold change vs veh, EDEM3 / RFU, TMEM33 / Fold change vs veh, TMEM33 / RFU, WDR75 / Fold change vs veh, WDR75 / RFU, AHCTF1 / Fold change vs veh, AHCTF1 / RFU, TFRC / Fold change vs veh, TFRC / RFU, ZDHHC17 / Fold change vs veh, ZDHHC17 / RFU, NOM1 / Fold change vs veh, NOM1 / RFU, ARL8B / Fold change vs veh, ARL8B / RFU, ZBTB11 / Fold change vs veh, ZBTB11 / RFU, TAMM41 / Fold change vs veh, TAMM41 / RFU, KIAA1704 /// LOC100996395 / Fold change vs veh, KIAA1704 /// LOC100996395 / RFU, ING1 / Fold change vs veh, ING1 / RFU, TRMT61B / Fold change vs veh, TRMT61B / RFU, FUBP3 / Fold change vs veh, FUBP3 / RFU, TP53 / Fold change vs veh, TP53 / RFU, TNKS2 / Fold change vs veh, TNKS2 / RFU, ZFP14 / Fold change vs veh, ZFP14 / RFU, ACTR2 / Fold change vs veh, ACTR2 / RFU, PPP3R1 / Fold change vs veh, PPP3R1 / RFU, PIK3R1 / Fold change vs veh, PIK3R1 / RFU, HNRNPA1 / Fold change vs veh, HNRNPA1 / RFU, RNF170 / Fold change vs veh, RNF170 / RFU, ZNF28 / Fold change vs veh, ZNF28 / RFU, RNGTT / Fold change vs veh, RNGTT / RFU, OGT / Fold change vs veh, OGT / RFU, BRD1 / Fold change vs veh, BRD1 / RFU, MARS / Fold change vs veh, MARS / RFU, ZNF655 / Fold change vs veh, ZNF655 / RFU, FAHD1 / Fold change vs veh, FAHD1 / RFU, BDP1 / Fold change vs veh, BDP1 / RFU, LRRCC1 / Fold change vs veh, LRRCC1 / RFU, ARID1A / Fold change vs veh, ARID1A / RFU, ZNF146 / Fold change vs veh, ZNF146 / RFU, ZNF330 / Fold change vs veh, ZNF330 / RFU, GPN3 / Fold change vs veh, GPN3 / RFU, C9orf123 / Fold change vs veh, C9orf123 / RFU, N4BP2L2 / Fold change vs veh, N4BP2L2 / RFU, ARFIP1 / Fold change vs veh, ARFIP1 / RFU, FAM179B / Fold change vs veh, FAM179B / RFU, BCL10 / Fold change vs veh, BCL10 / RFU, UHRF1BP1L / Fold change vs veh, UHRF1BP1L / RFU, BET1 / Fold change vs veh, BET1 / RFU, CNOT2 / Fold change vs veh, CNOT2 / RFU, ZNF268 / Fold change vs veh, ZNF268 / Fold change vs veh, ZNF507 / RFU, DGCR2 / Fold change vs veh, DGCR2 / RFU, WDSUB1 / Fold change vs veh, WDSUB1 / Fold change vs veh, HSP90B1 /// MIR3652 / RFU, ADSS / Fold change vs veh, ADSS / RFU, GK / Fold change vs veh, GK / RFU, ZNF148 / Fold change vs veh, ZNF148 / RFU, TAF9 / Fold change vs veh, TAF9 / RFU, SLC1A5 / Fold change vs veh, SLC1A5 / RFU, SLMO2 / Fold change vs veh, SLMO2 / RFU, ABCC4 / Fold change vs veh, ABCC4 / RFU, LOC101060439 /// RAP1B / Fold change vs veh, LOC101060439 /// RAP1B / RFU, RFX7 / Fold change vs veh, RFX7 / RFU, GTPBP10 / Fold change vs veh, GTPBP10 / RFU, CNEP1R1 / Fold change vs veh, CNEP1R1 / RFU, BIVM-ERCC5 /// ERCC5 / Fold change vs veh, BIVM-ERCC5 /// ERCC5 / RFU, ILF3 / Fold change vs veh, ILF3 / RFU 11762660_at / Fold change /veh 11762660_at / RFU VCAN (11757783_s_at) / Fold change /veh VCAN (11757783_s_at) / RFU DDX43 (11728927_at) / Fold change /veh DDX43 (11728927_at) / RFU KRT8 (11758188_x_at) / Fold change /veh KRT8 (11758188_x_at) / RFU NKD1 (11759106_at) / Fold change /veh NKD1 (11759106_at) / RFU SRD5A1 (11742802_a_at) / Fold change /veh SRD5A1 (11742802_a_at) / RFU TPSAB1 /// TPSB2 (11721975_s_at) / Fold change /veh TPSAB1 /// TPSB2 (11721975_s_at) / RFU GSTM3 (11746129_a_at) / Fold change /veh GSTM3 (11746129_a_at) / RFU IL23R (11737362_x_at) / Fold change /veh IL23R (11737362_x_at) / RFU TMEM51 (11727254_a_at) / Fold change /veh TMEM51 (11727254_a_at) / RFU PIWIL2 (11732686_x_at) / Fold change /veh PIWIL2 (11732686_x_at) / RFU ORM1 (11744905_x_at) / Fold change /veh ORM1 (11744905_x_at) / RFU CCDC152 (11743942_at) / Fold change /veh CCDC152 (11743942_at) / RFU ECM1 (11717891_a_at) / Fold change /veh ECM1 (11717891_a_at) / RFU IL23R (11748794_a_at) / Fold change /veh IL23R (11748794_a_at) / RFU TNFAIP8L3 (11732012_x_at) / Fold change /veh TNFAIP8L3 (11732012_x_at) / RFU MBOAT4 (11741988_at) / Fold change /veh MBOAT4 (11741988_at) / RFU 11764193_at / Fold change /veh 11764193_at / RFU TMEM53 (11763286_at) / Fold change /veh TMEM53 (11763286_at) / RFU MAGEB2 (11727129_at) / Fold change /veh MAGEB2 (11727129_at) / RFU TMEM200A (11744735_a_at) / Fold change /veh TMEM200A (11744735_a_at) / RFU CCDC152 (11751479_a_at) / Fold change /veh CCDC152 (11751479_a_at) / RFU FAM211A (11726209_a_at) / Fold change /veh FAM211A (11726209_a_at) / RFU RGS16 (11746705_a_at) / Fold change /veh RGS16 (11746705_a_at) / RFU VCAN (11755009_s_at) / Fold change /veh VCAN (11755009_s_at) / RFU RHOB (11743442_s_at) / Fold change /veh RHOB (11743442_s_at) / RFU RGS16 (11720943_a_at) / Fold change /veh RGS16 (11720943_a_at) / RFU RGS16 (11720944_at) / Fold change /veh RGS16 (11720944_at) / RFU, VPS4B / Fold change vs veh, VPS4B / RFU, CREB1 / Fold change vs veh, CREB1 / RFU, DNAJC13 / Fold change vs veh, DNAJC13 / RFU, GNAQ / Fold change vs veh, GNAQ / RFU, CDK5R1 / Fold change vs veh, CDK5R1 / RFU, ZRANB3 / Fold change vs veh, ZRANB3 / RFU, CUL4A / Fold change vs veh, CUL4A / RFU, CCNY / Fold change vs veh, CCNY / RFU, UFL1 / Fold change vs veh, UFL1 / RFU, COG3 / Fold change vs veh, COG3 / RFU, DIAPH2 / Fold change vs veh, DIAPH2 / RFU, SKA2 / Fold change vs veh, SKA2 / RFU, AFF3 / Fold change vs veh, AFF3 / RFU, LMF1 / Fold change vs veh, LMF1 / RFU, IPO11 / Fold change vs veh, IPO11 / RFU, DFFB / Fold change vs veh, DFFB / RFU, FOXP1 / Fold change vs veh, FOXP1 / RFU, CARD8 / Fold change vs veh, CARD8 / RFU, STRN3 / Fold change vs veh, STRN3 / RFU, ADK / Fold change vs veh, ADK / RFU, RASSF2 / Fold change vs veh, RASSF2 / RFU, WIPF1 / Fold change vs veh, WIPF1 / RFU, LARP1B / Fold change vs veh, LARP1B / RFU, RASA1 / Fold change vs veh, RASA1 / RFU, RB1 / Fold change vs veh, RB1 / RFU, PPFIA1 / Fold change vs veh, PPFIA1 / RFU, MAT2A / Fold change vs veh, MAT2A / RFU, CCT5 / Fold change vs veh, CCT5 / RFU, WDR92 / Fold change vs veh, WDR92 / RFU, CUX1 / Fold change vs veh, CUX1 / RFU, TTC7A / Fold change vs veh, TTC7A / RFU, TMEM135 / Fold change vs veh, TMEM135 / RFU, DEPTOR / Fold change vs veh, DEPTOR / RFU, CPM / Fold change vs veh, CPM / RFU, DNAJB6 / Fold change vs veh, DNAJB6 / RFU, CACNA2D3 / Fold change vs veh, CACNA2D3 / RFU, DTX4 / Fold change vs veh, DTX4 / RFU, TFCP2 / Fold change vs veh, TFCP2 / RFU, GMCL1 /// GMCL1P1 / Fold change vs veh, GMCL1 /// GMCL1P1 / RFU, AEBP2 / Fold change vs veh, AEBP2 / RFU, SNHG1 /// SNORD22 /// SNORD25 /// SNORD26 /// SNORD27 /// SNORD28 /// SNORD29 /// SNORD31 / Fold change vs veh, SNHG1 /// SNORD22 /// SNORD25 /// SNORD26 /// SNORD27 /// SNORD28 /// SNORD29 /// SNORD31 / Fold change (Aza/veh), C12orf56 (ProbeSet 11735607_a_at) / Fold change (ACY-1035/veh), C12orf56 (ProbeSet 11735607_a_at) / Fold change (Aza/veh), FGFR1OP (ProbeSet 11751329_s_at) / Fold change (ACY-1035/veh), FGFR1OP (ProbeSet 11751329_s_at) / Fold change (Aza/veh), VPS36 (ProbeSet 11739960_a_at) / Fold change (ACY-1035/veh), VPS36 (ProbeSet 11739960_a_at) / RFU SYPL1 (11715823_x_at) / Fold change /veh SYPL1 (11715823_x_at) / RFU IGFBP7 (11715501_s_at) / Fold change /veh IGFBP7 (11715501_s_at) / RFU REEP3 (11722064_at) / Fold change /veh REEP3 (11722064_at) / RFU IGLL1 (11728026_x_at) / Fold change /veh IGLL1 (11728026_x_at): dose or concentration left out as unconfirmed
Details: MV-4-11 cells, 48 hours

## Nc1ccc(-c2cccs2)cc1NC(=O)c1ccc2c(c1)cc(C1CC1)n2CCN1CCOCC1 [ACY-1035]
  RFU WNT11 (11732464_a_at): 8.64 RFU
